Experimental data from patent US20230085307A1, “PYRIDAZINONE COMPOUND AND HERBICIDE” (NISSAN CHEMICAL CORPORATION, priority 2019, published 2023).

Key:
Japanese bulrush = assay: Test Example 1: herbicidal activity, application before weed generation under submerged conditions (Table 16, symbol B); type: in vivo, Japanese bulrush (Schoenoplectus juncoides); conditions: 320 g/ha applied herbicide
Method in brief: (§1)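 Emulsion formulation, water-diluted to set dose, was put onto the flooded surface (4 cm depth, alluvial soil) the same day weeds were sown and 2.5-leaf rice transplanted. After 3 weeks at 25-30 °C under glass, each species was rated 0 (≤5% kill) to 5 (≥90% kill).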

velvetleaf [1] = assay: Test Example 5: herbicidal effect by foliage application, plastic box (Table 20, symbol M); type: in vivo, velvetleaf (Abutilon theophrasti); conditions: foliage application, AAH 320 g/ha, evaluated three weeks after application
Method in brief: (§2)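 Sow seeds spot-wise in sterilized diluvial soil; cover with ~1.5 cm soil. Grow 14 days in greenhouse, 25° C. to 30° C. Spray foliage with emulsion diluted to predetermined amount. Rate effect after 3 weeks.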

lambsquarters [2] = assay: Test Example 5: herbicidal effect by foliage application, plastic box (Table 20, symbol O); type: in vivo, lambsquarters (Chenopodium album); conditions: foliage application, AAH 320 g/ha, evaluated three weeks after application
Method in brief: as §2

redroot pigweed [3] = assay: Test Example 4: herbicidal effect by soil treatment (Table 19, symbol N); type: in vivo, redroot pigweed (Amaranthus retroflexus); conditions: amount of applied herbicide 320 g/ha
Method in brief: (§3)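 Soil-surface application: an emulsion agent diluted with water to the predetermined dose is sprayed uniformly over seeds lying under roughly 1.5 cm of sterilized diluvial soil. Boxes stay in a greenhouse at 25° C. to 30° C. Three weeks later, each species is graded on previously defined criteria.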

blackgrass [4] = assay: Test Example 5: herbicidal effect by foliage application, plastic box (Table 20, symbol J); type: in vivo, blackgrass (Alopecurus myosuroides); conditions: foliage application, AAH 320 g/ha, evaluated three weeks after application
Method in brief: as §2

Italian ryegrass [5] = assay: Test Example 5: herbicidal effect by foliage application, plastic box (Table 20, symbol K); type: in vivo, Italian ryegrass (Lolium multiflorum); conditions: foliage application, AAH 320 g/ha, evaluated three weeks after application
Method in brief: as §2

southern crabgrass [6] = assay: Test Example 5: herbicidal effect by foliage application, plastic box (Table 20, symbol F); type: in vivo, southern crabgrass (Digitaria ciliaris); conditions: foliage application, AAH 320 g/ha, evaluated three weeks after application
Method in brief: as §2

wild oat [7] = assay: Test Example 4: herbicidal effect by soil treatment (Table 19, symbol I); type: in vivo, wild oat (Avena fatua); conditions: amount of applied herbicide 320 g/ha
Method in brief: as §3

barnyard grass [8] = assay: Test Example 4: herbicidal effect by soil treatment (Table 19, symbol H); type: in vivo, barnyard grass (Echinochloa crus-galli); conditions: amount of applied herbicide 320 g/ha
Method in brief: as §3

windgrass [9] = assay: Test Example 4: herbicidal effect by soil treatment (Table 19, symbol L); type: in vivo, windgrass (Apera spica-venti); conditions: amount of applied herbicide 320 g/ha
Method in brief: as §3

Chinese sprangletop = assay: Test Example 3: herbicidal effect by foliage application, Wagner pot (Table 18, symbol D); type: in vivo, chinese sprangletop (Leptochloa chinensis); conditions: amount of applied herbicide 320 g/ha
Method in brief: (§4)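 Plants were sown in alluvial soil held under 0.1–0.5 cm standing water and grown 14 days in a greenhouse at 25–30 °C. An emulsifiable formulation, water-diluted to the set dose, was then sprayed onto the foliage, and effects were scored three weeks later using previously defined criteria.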

blackgrass [10] = assay: Test Example 4: herbicidal effect by soil treatment (Table 19, symbol J); type: in vivo, blackgrass (Alopecurus myosuroides); conditions: amount of applied herbicide 320 g/ha
Method in brief: as §3

chickweed [11] = assay: Test Example 5: herbicidal effect by foliage application, plastic box (Table 20, symbol P); type: in vivo, common chickweed (Stellaria media); conditions: foliage application, AAH 320 g/ha, evaluated three weeks after application
Method in brief: as §2

persian speedwell [12] = assay: Test Example 4: herbicidal effect by soil treatment (Table 19, symbol R); type: in vivo, Persian speedwell (Veronica persica); conditions: amount of applied herbicide 320 g/ha
Method in brief: as §3

late watergrass = assay: Test Example 1: herbicidal activity, application before weed generation under submerged conditions (Table 16, symbol A); type: in vivo, late watergrass (Echinochloa oryzicola); conditions: 320 g/ha applied herbicide
Method in brief: as §1

southern crabgrass [13] = assay: Test Example 4: herbicidal effect by soil treatment (Table 19, symbol F); type: in vivo, southern crabgrass (Digitaria ciliaris); conditions: amount of applied herbicide 320 g/ha
Method in brief: as §3

wild oat [14] = assay: Test Example 5: herbicidal effect by foliage application, plastic box (Table 20, symbol I); type: in vivo, wild oat (Avena fatua); conditions: foliage application, AAH 320 g/ha, evaluated three weeks after application
Method in brief: as §2

redroot pigweed [15] = assay: Test Example 5: herbicidal effect by foliage application, plastic box (Table 20, symbol N); type: in vivo, redroot pigweed (Amaranthus retroflexus); conditions: foliage application, AAH 320 g/ha, evaluated three weeks after application
Method in brief: as §2

green foxtail [16] = assay: Test Example 5: herbicidal effect by foliage application, plastic box (Table 20, symbol G); type: in vivo, green foxtail (Setaria viridis); conditions: foliage application, AAH 320 g/ha, evaluated three weeks after application
Method in brief: as §2

Italian ryegrass [17] = assay: Test Example 4: herbicidal effect by soil treatment (Table 19, symbol K); type: in vivo, Italian ryegrass (Lolium multiflorum); conditions: amount of applied herbicide 320 g/ha
Method in brief: as §3

persian speedwell [18] = assay: Test Example 5: herbicidal effect by foliage application, plastic box (Table 20, symbol R); type: in vivo, Persian speedwell (Veronica persica); conditions: foliage application, AAH 320 g/ha, evaluated three weeks after application
Method in brief: as §2

windgrass [19] = assay: Test Example 5: herbicidal effect by foliage application, plastic box (Table 20, symbol L); type: in vivo, windgrass (Apera spica-venti); conditions: foliage application, AAH 320 g/ha, evaluated three weeks after application
Method in brief: as §2

lambsquarters [20] = assay: Test Example 4: herbicidal effect by soil treatment (Table 19, symbol O); type: in vivo, lambsquarters (Chenopodium album); conditions: amount of applied herbicide 320 g/ha
Method in brief: as §3

barnyard grass [21] = assay: Test Example 3: herbicidal effect by foliage application, Wagner pot (Table 18, symbol H); type: in vivo, barnyard grass (Echinochloa crus-galli); conditions: amount of applied herbicide 320 g/ha
Method in brief: as §4

oval-leafed pondweed = assay: Test Example 1: herbicidal activity, application before weed generation under submerged conditions (Table 16, symbol C); type: in vivo, oval-leafed pondweed (Monochoria vaginalis); conditions: 320 g/ha applied herbicide
Method in brief: as §1

rice flat sedge = assay: Test Example 3: herbicidal effect by foliage application, Wagner pot (Table 18, symbol E); type: in vivo, rice flat sedge (Cyperus iria); conditions: amount of applied herbicide 320 g/ha
Method in brief: as §4

velvetleaf [22] = assay: Test Example 4: herbicidal effect by soil treatment (Table 19, symbol M); type: in vivo, velvetleaf (Abutilon theophrasti); conditions: amount of applied herbicide 320 g/ha
Method in brief: as §3

green foxtail [23] = assay: Test Example 4: herbicidal effect by soil treatment (Table 19, symbol G); type: in vivo, green foxtail (Setaria viridis); conditions: amount of applied herbicide 320 g/ha
Method in brief: as §3

barnyard grass [24] = assay: Test Example 5: herbicidal effect by foliage application, plastic box (Table 20, symbol H); type: in vivo, barnyard grass (Echinochloa crus-galli); conditions: foliage application, AAH 320 g/ha, evaluated three weeks after application
Method in brief: as §2

chickweed [25] = assay: Test Example 4: herbicidal effect by soil treatment (Table 19, symbol P); type: in vivo, common chickweed (Stellaria media); conditions: amount of applied herbicide 320 g/ha
Method in brief: as §3

Compound: CC(=O)COc1cccc(-c2sc3ccc(F)cc3c2-c2c(O)c(C)nn(C)c2=O)c1 [2-275]
- Herbicidal effect on B: Japanese bulrush (grade 0-5) (Japanese bulrush): 3 (Herbicidal rate of 40% or more and less than 70%)
- M: velvetleaf, herbicidal effect (criteria 0-5) (velvetleaf [1]): 3 (Herbicidal rate of 40% or more and less than 70%)
- O: lambsquarters, herbicidal effect (criteria 0-5) (lambsquarters [2]): 2 (Herbicidal rate of 20% or more and less than 40%)
- herbicidal effect on N: redroot pigweed (redroot pigweed [3]): 4 (Herbicidal rate of 70% or more and less than 90%)
- J: blackgrass, herbicidal effect (criteria 0-5) (blackgrass [4]): 0 (Herbicidal rate of 5% or less (almost no effect))
- K: Italian ryegrass, herbicidal effect (criteria 0-5) (Italian ryegrass [5]): 0 (Herbicidal rate of 5% or less (almost no effect))
- F: southern crabgrass, herbicidal effect (criteria 0-5) (southern crabgrass [6]): 5 (Herbicidal rate of 90% or more (almost completely withered))
- herbicidal effect on I: wild oat (wild oat [7]): 0 (Herbicidal rate of 5% or less (almost no effect))
- herbicidal effect on H: barnyard grass (barnyard grass [8]): 3 (Herbicidal rate of 40% or more and less than 70%)
- herbicidal effect on L: windgrass (windgrass [9]): 0 (Herbicidal rate of 5% or less (almost no effect))
- herbicidal effect on D: Chinese sprangletop (Chinese sprangletop): 0 (Herbicidal rate of 5% or less (almost no effect))
- herbicidal effect on J: blackgrass (blackgrass [10]): 0 (Herbicidal rate of 5% or less (almost no effect))
- P: chickweed, herbicidal effect (criteria 0-5) (chickweed [11]): 5 (Herbicidal rate of 90% or more (almost completely withered))
- herbicidal effect on R: persian speedwell (persian speedwell [12]): 3 (Herbicidal rate of 40% or more and less than 70%)
- Herbicidal effect on A: late watergrass (grade 0-5) (late watergrass): 3 (Herbicidal rate of 40% or more and less than 70%)
- herbicidal effect on F: southern crabgrass (southern crabgrass [13]): 5 (Herbicidal rate of 90% or more (almost completely withered))
- I: wild oat, herbicidal effect (criteria 0-5) (wild oat [14]): 0 (Herbicidal rate of 5% or less (almost no effect))
- N: redroot pigweed, herbicidal effect (criteria 0-5) (redroot pigweed [15]): 4 (Herbicidal rate of 70% or more and less than 90%)
- G: green foxtail, herbicidal effect (criteria 0-5) (green foxtail [16]): 4 (Herbicidal rate of 70% or more and less than 90%)
- herbicidal effect on K: Italian ryegrass (Italian ryegrass [17]): 0 (Herbicidal rate of 5% or less (almost no effect))
- R: persian speedwell, herbicidal effect (criteria 0-5) (persian speedwell [18]): 5 (Herbicidal rate of 90% or more (almost completely withered))
- L: windgrass, herbicidal effect (criteria 0-5) (windgrass [19]): 0 (Herbicidal rate of 5% or less (almost no effect))
- herbicidal effect on O: lambsquarters (lambsquarters [20]): 2 (Herbicidal rate of 20% or more and less than 40%)
- herbicidal effect on H: barnyard grass (barnyard grass [21]): 3 (Herbicidal rate of 40% or more and less than 70%)
- Herbicidal effect on C: oval-leafed pondweed (grade 0-5) (oval-leafed pondweed): 3 (Herbicidal rate of 40% or more and less than 70%)
- herbicidal effect on E: rice flat sedge (rice flat sedge): 0 (Herbicidal rate of 5% or less (almost no effect))
- herbicidal effect on M: velvetleaf (velvetleaf [22]): 1 (Herbicidal rate of 5% or more and less than 20%)
- herbicidal effect on G: green foxtail (green foxtail [23]): 4 (Herbicidal rate of 70% or more and less than 90%)
- H: barnyard grass, herbicidal effect (criteria 0-5) (barnyard grass [24]): 3 (Herbicidal rate of 40% or more and less than 70%)
- herbicidal effect on P: chickweed (chickweed [25]): 0 (Herbicidal rate of 5% or less (almost no effect))
